This assay concerns the target T1, mTOR (mTORC1) (Homo sapiens, UniProt P42345).
T1 construct: with raptor (mTORC1 complex)
The assay is described as follows: MSD electrochemiluminescent assay of p4E-BP1 T37/T46 in SUP-B15 cells, with immunoblot. It is filed as cell-based.

Usually EC50 stands for the concentration at which the effect is half-maximal.

The compound `CO[C@H]1C[C@@H]2CC[C@@H](C)[C@@](O)(O2)C(=O)C(=O)N2CCCC[C@H]2C(=O)O[C@H]([C@H](C)C[C@@H]2CC[C@@H](OCCCCc3cn(CCOCCOCCOCCOCCOCCOCCOCCOCCC(=O)NCCCCn4nc(-c5cc6cc(O)ccc6[nH]5)c5c(N)ncnc54)nn3)[C@H](OC)C2)CC(=O)[C@H](C)/C=C(\C)[C@@H](O)[C@@H](OC)C(=O)[C@H](C)C[C@H](C)/C=C/C=C/C=C/1C` [RMC-4627] showed an EC50 of 2 nM.

Values taken from PMC8366290, “Efficacy of a Novel Bi-Steric mTORC1 Inhibitor in Models of B-Cell Acute Lymphoblastic Leukemia” (Frontiers in Oncology, 2021).
